Experimental findings from paper PMC10938783, “A novel pan-PI3K inhibitor KTC1101 synergizes with anti-PD-1 therapy by targeting tumor suppression and immune activation” (Molecular Cancer, 2024) are described below.

Assay [1] deals with PC3, TMD8, HSC2, HSC4, CAL33 cells. As to the kind of experiment: Cell proliferation MTT assay, five tumor cell lines. The assay is classed as cell-based. As to conditions: Homo sapiens; cell viability assay; read-out: IC50 range over PC3, TMD8, HSC2, HSC4, CAL33 cells. The method, then: Cell proliferation was measured by MTT assay as previously described. The cells were seeded in a volume of 200 μL/well in 96-well plates. The next day, cells were treated with DMSO or a series of concentrations of KTC1101. After a 48-h incubation period, 20 μL of MTT (5 mg/mL) was added to each well. After further incubation for 4 h at 37 °C, the absorbance at 490 nm was measured using an iMark microplate reader (BIO-RAD, Hercules, CA, USA).
Background: Tetrazolium assays rely on reduction of a dye to a coloured formazan, in cell work by metabolically active cells.

Another assay relates to CD4^+ T cells. Description: T cell suppression assay (CFSE). It counts as cell-based. The following applies: Mus musculus, 72 h, read-out: IC50 proliferation. How it is done: (§1) Spleens from naive mice were isolated and ground through 70-μm filters to generate a single-cell suspension. After RBC lysis, single-cell suspensions were stained with CD3, CD8, CD4, CD25 or CD127 antibodies. Viable CD8^+ T cells (CD3^+CD8^+), CD4^+ T cells (CD3^+CD4^+), and Tregs (CD3^+CD4^+CD25^+CD127^low/−) from single-cell suspensions were sorted by FACS. Then T cells were labelled with […] in pre-warmed PBS for 10 min at 37 °C. The CFSE-labelled T cells were seeded in 96-well plates pre-coated with 10 μg/mL CD3 and 1 μg/mL CD28 antibodies and cultured in 1640 media with 10% FBS, 1 mM Sodium Pyruvate (Thermo, 11,360,070), 50 μM β-ME and 100 IU/mL IL2, as well as different concentrations of KTC1101 or solvent control. After 72 h, cells were harvested and the CFSE signal was measured by flow cytometry. Cell growth rate was calculated by the percentage of live, proliferated cell number at each drug concentration vs. solvent control.

For the next assay, the system named is CD8^+ T cells. As to the kind of experiment: T cell suppression assay (CFSE). It counts as cell-based. As to conditions: Mus musculus, 72 h, read-out: IC50 proliferation. How it is done:
as §1

A further assay concerns p-Akt, p-S6, Ki67. As to the kind of experiment: H&E and immunohistochemical staining of xenograft tumors. The assay is classed as in vivo, mouse. As to conditions: IHC, PC3 and TMD8 xenografts. The method, then: H&E and IHC staining were performed as previously described. H&E staining was used to detect pathological changes in morphology. For histological analysis, formalin-fixed, paraffin-embedded tumors were sectioned, and slides were deparaffinized using xylene (Thermo Fisher). Endogenous peroxidases were quenched with 3% hydrogen peroxide in methanol. Staining was performed using antibodies against phosphorylated Akt (Ser473), phosphorylated S6 (Ser235/236), or Ki67. Counterstaining was performed with Mayer’s hematoxylin (Dako). Slides were observed under an Olympus CX21 microscope and scanned with a high-resolution digital slide scanner (Pannoramic 250, 3DHistech) to capture images.

Take `COc1cc(N)cc2c1nc(C(F)F)n2-c1nc(N2CCCOCC2)nc(N2CCOCC2)n1` [KTC1101, 2-(difluoromethyl)-4-methoxy-1-(4-morpholino-6-(1,4-oxazepan-4-yl)-1,3,5-triazin-2-yl)-1H-benzo[d]imidazol-6-amine]: the IC50 was 20 to 130 nM in assay [1], 16 nM with CD4^+ T cells and 31.7 nM in the assay on CD8^+ T cells. Further, the “Ki67 expression in tumor tissues” value with p-Akt, p-S6, Ki67 is “notable reduction in Ki67 expression”. For the same compound, the “phosphorylation of AKT in tumor tissues” value in the assay on p-Akt, p-S6, Ki67 is “decreased phosphorylation of AKT”.
